Each block holds one compound with its values, some of them ahead of it. The source made the active and inactive calls.
Experiments:
[1] = intracellular Trypanosoma cruzi inhibitors in host cells – cell-based, plate reader, cherry-pick samples, set 3, dose response (AID 651818); assay type: functional;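 note: compounds incubated with infected cells for about four days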
[2] = biological target: FAD-linked sulfhydryl oxidase ALR (Homo sapiens, UniProt P55789); experiment: inhibitors of human ALR sulfhydryl oxidase, dose response, biochemical, H2O2 detection, luminescence, cherry-pick (AID 493248)
FAD-linked sulfhydryl oxidase ALR, sequence (P55789 whole entry): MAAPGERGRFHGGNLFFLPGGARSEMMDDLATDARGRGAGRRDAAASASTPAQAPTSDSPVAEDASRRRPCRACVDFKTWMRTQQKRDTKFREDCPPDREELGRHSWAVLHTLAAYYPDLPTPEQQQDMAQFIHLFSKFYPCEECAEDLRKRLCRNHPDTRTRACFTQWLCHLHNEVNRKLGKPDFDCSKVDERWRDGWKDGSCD

[3] = biological target: Luciferin 4-monooxygenase (Photinus pyralis, UniProt P08659); experiment: firefly luciferase enzyme inhibitors, dose response, biochemical, luminescence (AID 1891)
Luciferin 4-monooxygenase, sequence (P08659 whole entry): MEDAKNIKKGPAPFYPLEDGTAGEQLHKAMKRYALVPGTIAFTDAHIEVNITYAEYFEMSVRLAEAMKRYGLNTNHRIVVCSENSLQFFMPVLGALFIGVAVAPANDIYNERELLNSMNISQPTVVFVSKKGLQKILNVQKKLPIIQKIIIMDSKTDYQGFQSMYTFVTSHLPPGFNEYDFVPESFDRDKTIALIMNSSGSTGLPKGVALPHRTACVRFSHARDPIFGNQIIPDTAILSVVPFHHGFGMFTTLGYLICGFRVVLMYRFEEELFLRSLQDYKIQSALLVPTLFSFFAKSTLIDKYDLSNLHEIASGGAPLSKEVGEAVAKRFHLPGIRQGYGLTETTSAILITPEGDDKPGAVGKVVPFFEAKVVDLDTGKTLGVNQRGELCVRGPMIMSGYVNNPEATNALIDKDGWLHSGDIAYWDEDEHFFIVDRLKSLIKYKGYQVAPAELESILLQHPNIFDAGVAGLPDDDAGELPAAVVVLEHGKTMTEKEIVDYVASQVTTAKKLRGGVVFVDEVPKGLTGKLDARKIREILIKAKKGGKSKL

[4] = biological target: T1, Polyadenylate-binding protein 1 (Homo sapiens, UniProt P11940); experiment: PABP1 MLLE–PAM2 interaction inhibitors, dose response, miRNA deadenylation inhibitor project, biochemical, fluorescence polarization, Cy5-PAM2 peptide, secondary (AID 602260); assay type: functional; details: read-out: IC50_Mean
T1 sequence (P11940 whole entry): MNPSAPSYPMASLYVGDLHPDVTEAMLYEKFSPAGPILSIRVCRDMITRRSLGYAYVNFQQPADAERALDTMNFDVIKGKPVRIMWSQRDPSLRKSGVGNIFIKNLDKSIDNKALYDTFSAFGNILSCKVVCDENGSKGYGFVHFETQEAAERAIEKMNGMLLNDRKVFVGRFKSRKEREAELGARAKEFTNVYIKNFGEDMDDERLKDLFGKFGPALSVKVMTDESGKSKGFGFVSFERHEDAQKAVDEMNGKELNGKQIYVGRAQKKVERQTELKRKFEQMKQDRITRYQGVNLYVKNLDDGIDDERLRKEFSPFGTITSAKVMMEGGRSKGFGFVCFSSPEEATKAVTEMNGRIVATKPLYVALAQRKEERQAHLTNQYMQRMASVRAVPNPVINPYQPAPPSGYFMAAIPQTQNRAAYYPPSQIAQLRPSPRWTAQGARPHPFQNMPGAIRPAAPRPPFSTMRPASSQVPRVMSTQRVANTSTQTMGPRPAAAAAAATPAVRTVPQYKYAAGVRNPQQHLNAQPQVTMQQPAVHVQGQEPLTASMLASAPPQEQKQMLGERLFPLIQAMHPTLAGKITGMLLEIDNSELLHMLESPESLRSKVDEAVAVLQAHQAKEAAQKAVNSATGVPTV

[5] = biological target: T1, Polyadenylate-binding protein 1; experiment: PABP1 MLLE–PAM2 binding inhibitor potency, dose response, biochemical, fluorescence polarization, FITC-PAM2 peptide (AID 602259); assay type: functional; details: read-out: IC50_Mean
Genome polyprotein = Genome polyprotein (dengue virus type 2, UniProt P29990); experiment: Dengue-2 NS5 methyltransferase inhibitors, primary screen, biochemical, confirmation dose response (AID 588689); assay type: functional
Genome polyprotein, sequence (P29990 2492-3391 limits assumed): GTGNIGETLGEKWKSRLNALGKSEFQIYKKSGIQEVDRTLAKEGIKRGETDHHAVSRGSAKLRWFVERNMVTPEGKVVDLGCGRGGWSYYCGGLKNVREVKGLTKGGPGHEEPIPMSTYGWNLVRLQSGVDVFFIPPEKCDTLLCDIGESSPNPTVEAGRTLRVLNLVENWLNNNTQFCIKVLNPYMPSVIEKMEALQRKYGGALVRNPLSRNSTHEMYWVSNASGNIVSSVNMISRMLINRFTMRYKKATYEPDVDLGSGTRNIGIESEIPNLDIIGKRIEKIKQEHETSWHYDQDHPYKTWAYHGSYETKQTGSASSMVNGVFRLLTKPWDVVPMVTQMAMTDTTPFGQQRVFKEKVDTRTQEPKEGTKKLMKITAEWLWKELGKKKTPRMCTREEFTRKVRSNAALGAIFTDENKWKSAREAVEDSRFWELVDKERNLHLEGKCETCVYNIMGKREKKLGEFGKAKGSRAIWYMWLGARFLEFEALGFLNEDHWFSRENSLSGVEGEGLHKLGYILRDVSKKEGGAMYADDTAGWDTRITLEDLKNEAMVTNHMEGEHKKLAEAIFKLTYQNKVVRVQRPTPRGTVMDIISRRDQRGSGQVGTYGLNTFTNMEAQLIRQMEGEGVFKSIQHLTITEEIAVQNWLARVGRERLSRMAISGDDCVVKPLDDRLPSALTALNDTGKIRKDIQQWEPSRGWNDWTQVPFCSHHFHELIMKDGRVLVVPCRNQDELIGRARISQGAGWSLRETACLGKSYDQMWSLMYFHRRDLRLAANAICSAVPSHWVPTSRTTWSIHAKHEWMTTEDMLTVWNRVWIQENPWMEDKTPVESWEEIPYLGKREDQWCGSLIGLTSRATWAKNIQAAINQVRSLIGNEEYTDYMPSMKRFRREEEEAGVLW

[6] = HEp-2 cell cytotoxicity, dose response, cytotoxicity control for RSV inhibitor project, HTS (AID 2410); assay type: functional; details: human respiratory syncytial virus
[7] = biological target: T2, Histone-lysine N-methyltransferase NSD2 (Homo sapiens, UniProt O96028); assay type: biochemical
T2 sequence (O96028 whole entry): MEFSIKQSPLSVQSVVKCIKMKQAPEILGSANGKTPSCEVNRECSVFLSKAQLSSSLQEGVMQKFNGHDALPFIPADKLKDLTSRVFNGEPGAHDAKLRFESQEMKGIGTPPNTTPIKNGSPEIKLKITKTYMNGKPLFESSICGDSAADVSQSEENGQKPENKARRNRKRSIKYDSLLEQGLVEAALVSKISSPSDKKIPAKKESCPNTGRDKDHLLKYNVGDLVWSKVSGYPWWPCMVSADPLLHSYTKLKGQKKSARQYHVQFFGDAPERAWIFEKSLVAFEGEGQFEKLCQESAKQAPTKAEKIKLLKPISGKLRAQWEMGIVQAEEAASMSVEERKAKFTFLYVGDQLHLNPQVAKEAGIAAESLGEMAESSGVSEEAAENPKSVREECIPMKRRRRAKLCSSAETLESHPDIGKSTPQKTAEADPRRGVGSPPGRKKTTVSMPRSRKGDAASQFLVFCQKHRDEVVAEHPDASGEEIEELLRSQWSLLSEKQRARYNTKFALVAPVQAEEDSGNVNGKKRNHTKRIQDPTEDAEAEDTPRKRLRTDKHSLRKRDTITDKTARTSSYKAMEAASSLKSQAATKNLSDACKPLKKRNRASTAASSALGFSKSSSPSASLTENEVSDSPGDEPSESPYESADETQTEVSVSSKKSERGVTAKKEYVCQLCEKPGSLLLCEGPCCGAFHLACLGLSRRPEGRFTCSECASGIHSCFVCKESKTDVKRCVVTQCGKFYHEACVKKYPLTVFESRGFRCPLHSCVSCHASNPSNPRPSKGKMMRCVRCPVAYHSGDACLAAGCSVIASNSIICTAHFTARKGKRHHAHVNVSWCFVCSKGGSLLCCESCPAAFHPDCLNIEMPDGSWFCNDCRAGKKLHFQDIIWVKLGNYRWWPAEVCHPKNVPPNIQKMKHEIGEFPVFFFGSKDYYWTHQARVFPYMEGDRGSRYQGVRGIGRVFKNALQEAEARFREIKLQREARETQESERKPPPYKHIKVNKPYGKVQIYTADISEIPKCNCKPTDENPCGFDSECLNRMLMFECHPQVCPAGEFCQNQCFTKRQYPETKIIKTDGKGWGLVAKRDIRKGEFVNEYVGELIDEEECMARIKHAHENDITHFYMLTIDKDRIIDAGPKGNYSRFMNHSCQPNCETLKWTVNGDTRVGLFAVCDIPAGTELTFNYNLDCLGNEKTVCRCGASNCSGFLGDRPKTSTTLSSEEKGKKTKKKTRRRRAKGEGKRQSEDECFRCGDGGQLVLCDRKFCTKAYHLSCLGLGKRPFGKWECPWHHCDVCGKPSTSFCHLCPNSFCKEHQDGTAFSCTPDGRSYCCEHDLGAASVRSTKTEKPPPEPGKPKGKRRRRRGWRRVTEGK

SMILES: COc1ccc(S(=O)(=O)Nc2cccc3c2O[C@@H](CN(C)Cc2ccc(C(=O)Nc4ccccc4N)cc2)[C@@H](C)CN([C@H](C)CO)C3=O)cc1
AC50 [1]: 4.14 µM (active)

SMILES: C[C@@H]1CN([C@@H](C)CO)C(=O)Cc2cc(NC(=O)Nc3ccc4c(c3)OCO4)ccc2O[C@@H]1CN(C)Cc1ccc(Oc2ccccc2)cc1
AC50 [1]: 2.77 µM (active)

AC50 [2]: 1.81 µM (active)
SMILES: CC1CN(C2CCCCC2)c2nc3c(c(=O)[nH]c(=O)n3C)n2C1 (centres undefined)

SMILES: C[C@H]1CN([C@@H](C)CO)C(=O)c2cc(NC(=O)Cc3cn(C)c4ccccc34)ccc2O[C@H]1CN(C)S(=O)(=O)c1ccc(Cl)cc1
AC50 [1]: 2.81 µM (active)

EC50 [3]: > 112 µM (not active)
IC50 [4]: > 66 µM (inactive)
IC50 [5]: > 66 µM (inactive)
SMILES: O=c1[nH]c2ccc(NC(=S)Nc3ccccc3Cl)cc2[nH]1

IC50 [4]: > 66 µM (inactive)
IC50 [5]: > 66 µM (inactive)
SMILES: CCOC(=O)CNC(=O)CSc1nc(-c2cccc(C)c2)ns1

SMILES: COc1ccc(CN(C)C[C@H]2Oc3ccc(NC(=O)C4CCCCC4)cc3CC(=O)N([C@@H](C)CO)C[C@@H]2C)cc1
AC50 [1]: 1.2 µM (active)

SMILES: C[C@H]1CN([C@@H](C)CO)C(=O)Cc2cc(NS(=O)(=O)c3ccc(F)cc3)ccc2O[C@H]1CN(C)Cc1ccc(C(=O)Nc2ccccc2N)cc1
AC50 [1]: 2.64 µM (active)

IC50 (Genome polyprotein): 28.7 µM (active)
AC50 [7]: > 20 µM (inactive)
SMILES: O=C1Nn2c(nc3c(c2=O)CCCC3)/C1=N/Nc1cccc(C(F)(F)F)c1
CC50 [6]: 25.1 µM (active)

SMILES: C[C@@H]1CN([C@@H](C)CO)C(=O)Cc2cc(NC(=O)Nc3cccc4ccccc34)ccc2O[C@@H]1CN(C)Cc1ccc(-c2ccccc2)cc1
AC50 [1]: 3.22 µM (active)

SMILES: C[C@H](CO)N1C[C@H](C)[C@H](CN(C)Cc2ccc(C(F)(F)F)cc2)Oc2c(NC(=O)Nc3ccc(C(F)(F)F)cc3)cccc2C1=O
AC50 [1]: 4.77 µM (active)

IC50 (Genome polyprotein): 57.6 µM (active)
SMILES: O=C(c1ccc(NC(=O)C(c2ccccc2)c2ccccc2)cc1)c1ccc(C(=O)O)c(C(=O)O)c1

IC50 [4]: > 66 µM (inactive)
IC50 [5]: > 66 µM (inactive)
SMILES: Cc1noc(C)c1-c1csc(N2CCC(C(N)=O)CC2)n1

Source: ChEMBL document CHEMBL1201862, “PubChem BioAssay data set” (2004)
